# Legend:
# [1] = system: GAS strain JS95; experiment: Histopathology of soft-tissue lesions: neutrophil (PMN) recruitment in mice challenged with JS95; type: in vivo, Group A Streptococcus (GAS); conditions: 10^8 CFU JS95 with 100 μg of 70% pure peptide, 24 h after inoculation, FIG. 11C, 11D
# Protocol: Haematoxylin and eosin stain of the soft-tissue lesions from a mouse challenged with 10^8 CFU of JS95 24 h after inoculation (11A-11B) in the presence of 100 μg of 70% pure peptide (11C, 11D). After 24 hours, skin samples were stained with hematoxiline and eosine and examined by microscopy at 50 (11A, 11C) and 400 (11B, 11D) fold magnification. There is extensive necrosis of fascia, massive presence of bacteria but no infiltration of neutrophils. There were no differences in the histopathology findings as determined in two mice in 4 different experiments.
# The ability of GAS to cause lethal infection in ten-gram BALB/c female mice (Harlan Laboratories, Jerusalem, Israel) was assessed as described before [Ravins, M. et al. J. Infect. Dis. 182:1702-11 (2000)]. Briefly, 10^8 CFU of log-phase bacteria were washed twice in PBS, resuspended in 0.1 ml PBS and injected subcutaneously into the back of a mouse. The number of CFU injected was verified for each experiment by plating bacteria on THY-blood agar plates and counting. Each group contained 8 to 10 mice that were observed daily for death and changes in the lesions' properties such as size and depth, or were sacrificed at different times after inoculation for histopathological assessment. […] Aliquots were plated and streptococcal colonies were counted. […]
# [2] = system: JS95; experiment: IL-8 proteolytic activity of supernatant of JS95 grown in the presence of SilCR; type: cell-based, Group A Streptococcus (GAS); conditions: JS95 grown in the presence of SilCR (25 then 50 μg/ml); FIG. 15A
# Protocol: […] was grown in the absence and presence of SilCR (50 μg/ml). IL-8 was incubated with the indicated supernatant fractions and then subjected to 18% SDS-PAGE. The separated protein bands were electro-transferred to a nitrocellulose membrane. Anti-IL-8 antibody and a secondary antibody conjugated to horseradish peroxidase were used to detect IL-8. The number of the lane represents incubation of IL-8 with: 1, DMEM+FCS (control); 2, JS95 supernatant; 3, JS95 supernatant grown in the presence of SilCR; 4, JS95 supernatant, pretreated with pefabloc SC; 5, supernatant of JS95 grown in the absence of SilCR, then 50 μg/ml of SilCR was added to the degradation assay.
# 15A The column numbers represent the ELISA results after incubation of IL-8 with: 1, DMEM+FCS (control); and the supernatants of: 2, JS95; 3, JS95 grown in the presence of SilCR; 4, JS95 pretreated with aprotenin; 5, JS95 pretreated with soybean trypsin inhibitor; 6, JS95 pretreated with benzamidine. The background of the ELISA assay (0.08±0.004) was subtracted from the shown results. The data represent the mean ± SD, of three separate experiments. […]
# C. Proteolysis of chemokines was determined by ELISA and Dot-blot. IL-8 content was quantified by ELISA using the Quantikine kit for determination of human IL-8 (R&D Systems, Minneapolis, Minn.) according to the manufacturer's instructions.
# [3] = system: M3 strain; experiment: Murine NF model: lesions after challenge with an M3 strain; type: in vivo, Group A Streptococcus (GAS); conditions: SilCR injected together with an M3 strain (data not shown)
# [4] = system: GAS strain JS95; experiment: Murine model of invasive soft-tissue infection: survival and skin lesions after subcutaneous challenge with JS95; type: in vivo, Group A Streptococcus (GAS)
# Protocol: The ability of GAS to cause lethal infection in ten-gram BALB/c female mice (Harlan Laboratories, Jerusalem, Israel) was assessed as described before [Ravins, M. et al. J. Infect. Dis. 182:1702-11 (2000)]. Briefly, 10^8 CFU of log-phase bacteria were washed twice in PBS, resuspended in 0.1 ml PBS and injected subcutaneously into the back of a mouse. The number of CFU injected was verified for each experiment by plating bacteria on THY-blood agar plates and counting. Each group contained 8 to 10 mice that were observed daily for death and changes in the lesions' properties such as size and depth, or were sacrificed at different times after inoculation for histopathological assessment. To determine the presence of bacteria in skin and spleen, mice were sacrificed; a wide area surrounding the skin lesions was excised, spleens were removed, and organs were homogenized in 10 or 1 ml of sterile PBS, respectively. Aliquots were plated and streptococcal colonies were counted. The Institutional Ethics Committee for animal care approved all animal procedures (approval number MD 79.17-4).
# Therefore, the inventors next tested the peptide effect on virulence of the highly invasive strain of the invention. A 17 amino acid peptide, corresponding to the amino acid sequence encoded by the SilCR ORF, was synthesized and purified. Mice were challenged with the highly virulent strain (JS95) in the presence and absence of the 17 amino acid synthetic peptide DIFKLVIDHISMKARKK (also denoted by SEQ ID NO: 32), of a 70% purity.
# The ability of the peptide to protect mice inoculated with increasing doses of the bacteria ranging from 10^7 to 10^10 CFU was next examined. […] Mice challenged with a low dose of 10^7 CFU, in the absence of the peptide, died within 4 days after challenge. […] Results were consistent even after 21 days of follow up (data not shown).
# Mice were injected under the surface of the skin with 2×10^8 of M14 GAS strain, JS95, without (FIG. 8A) or with 25 μg of the highly purified (90% purity) 17 amino acid peptide (SEQ ID NO: 32) (FIG. 8B).
# In order to examine the ability of the 17 amino acid peptide (SEQ ID NO: 32) to protect against bacterial challenge, mice were injected with 200 μg of this peptide 24 hours prior to bacterial challenge. As shown by FIG. 9, the 17 amino acid peptide protects 50% of the mice when injected 24 hours before bacterial challenge of 4×10^8 CFU of JS95 strain.
# [5] = peptide of 90% purity mixed with 10^8 CFU JS95, subcutaneous, FIG. 6
sequence,measurement,setting,value
"DIFKLVIDHISMKARKK (SilCR peptide) [17 amino acid synthetic peptide, predicted mature form of the pheromone peptide encoded by the SilCR ORF; used at 70% or 90% purity]",recruitment of PMN / neutrophil infiltration at the site of infection,[1],abundant neutrophil infiltration
same,recruitment of PMN / neutrophil infiltration at the site of infection,[1]; listed as peptide,significant recruitment of PMN
same,IL-8 proteolytic activity of the strain,[2],markedly reduced
same,lesions,[3],reduced lesions
same,protection of mice (survival),"[4]; 3 μg of the 90% purified peptide, JS95 challenge as high as 10^10 CFU, FIG. 16A",protected mice
same,survival of mice,"[4]; 25 μg peptide (90% purity) with 2×10^8 JS95 under the surface of the skin, FIG. 8",all mice of this group survived
same,skin lesion,"[4]; 25 μg peptide (90% purity) with 2×10^8 JS95 under the surface of the skin, FIG. 8B, 8D",small abscess surrounded by a normal skin
same,protection of mice (survival),"[4]; 100 μg peptide (70% purity) injected together with 10^7 CFU JS95, FIG. 5",partial protection
same,mice protected,"[4]; 200 μg peptide (70% pure) injected 24 hours before challenge with 4×10^8 CFU JS95, FIG. 9",50%
same,protection of mice (survival),"[4]; 200 μg peptide (70% pure), challenge with 10^7 and up to 10^9 CFU JS95, FIG. 7",completely protected
same,deaths of mice,"[4]; 200 μg peptide (70% pure), challenge with 10^10 CFU JS95, FIG. 7",only one mouse died
same,protection of mice (survival),"[4]; 200 μg peptide (70% purity) injected together with 10^7 CFU JS95, FIG. 5",complete protection
same,lesions of mice,"[4]; challenged with JS95 and SilCR, compared with JS95 alone, FIG. 8B vs 8A","significantly smaller, less necrotic and superficial, with defined borders"
same,dose dependence of protection of mice,"[4]; peptide of 70% purity, 10^7 CFU JS95, FIG. 5",dose-dependent
same,peptide dose at which the protective effect is evident,[4]; [5],3 µg
same,peptide dose reaching plateau level of protection,[4]; [5],50 µg
same,protection of mice when administered at a site distant to the bacterial challenge,[4]; simultaneously administered at a distant site,nor did it protect mice

# From patent US20070071773A1, “Compositions and methods for the treatment and prophylaxis of infections caused by gram positive bacteria” (priority 2002, published 2007)
